Laboratory results taken from US12331033B2, “Inhibitors of SARM1” (Disarm Therapeutics, Inc., priority 2020, dated 2025).
pIC50: −log10 of the molar value.

Biological target: SARM1 (ARM-SAM-TIR) (Homo sapiens (Human), UniProt Q6SZW1)
Assay: ARM-SAM-TIR SARM1 IC50 assay (NADase activity, NAD+ cleavage, RapidFire MS)
Format: biochemical
Details: ARM-SAM-TIR lysate 5 μg/mL, 2 h pre-incubation, 5 μM NAD+, 2 hr room temperature
Experimental: This Example describes an assay of ARM-SAM-TIR NADase activity and use of this assay to measure the efficacy of compounds of Formula I or Formula I′ to block SARM1 mediated NAD+ cleavage. This assay was optimized in such a way as to characterize the efficacy of the compounds in Formula I or Formula I′ to inhibit SARM1 activity and to calculate an IC50 value for each compound. This assay makes use of full length SARM1, which encompasses the ARM, SAM and TIR domains.
NRK1-HEK293T cells were seeded onto 150 cm^2 plates at 20×10^6 cells per plate. The next day, the cells were transfected with 15 μg ARM-SAM-TIR expression plasmid, SEQ ID NO: 1.
The cultures were supplemented with 1 mM NR at time of transfection to minimize toxicity from ARM-SAM-TIR overexpression. Forty-eight hours after transfection, cells were harvested, pelleted by centrifugation at 1,000 rpm (Sorvall ST 16R centrifuge, Thermo Fisher), and washed once with cold PBS (0.01 M phosphate buffered saline NaCl 0.138 M; KCl 0.0027 M; pH 7.4). The cells were resuspended in PBS with protease inhibitors (cOmplete™ protease inhibitor cocktail, Roche product #11873580001) and cell lysates were prepared by sonication (Branson Sonifer 450, output=3, 20 episodes of stroke). The lysates were centrifuged (12,000×g for 10 min at 4° C.) to remove cell debris and the supernatants (containing ARM-SAM-TIR protein) were stored at −80° C. for later use in the in vitro ARM-SAM-TIR NADase assay (see below). Protein concentration was determined by the Bicinchoninic (BCA) method and used to normalize lysate concentrations.
The enzymatic assay was performed in a 384-well polypropylene plate in Dulbecco's PBS buffer in a final assay volume of 20 μL. ARM-SAM-TIR lysate with a final concentration of 5 μg/mL was pre-incubated with the respective compound at 1% DMSO final assay concentration over 2 h at room temperature. The reaction was initiated by addition of 5 μM final assay concentration of NAD+ as substrate. After a 2 hr room temperature incubation, the reaction was terminated with 40 μL of stop solution of 7.5% trichloroactetic acid in acetonitrile. The NAD+ and ADPR concentrations were analyzed by a RapidFire High Throughput Mass Spectrometry System (Agilent Technologies, Santa Clara, Calif.) using an API4000 triple quadrupole mass spectrometer (AB Sciex Framingham, Mass.).

Chain of SARM1 (ARM-SAM-TIR) (Q6SZW1 other isoform, or with tags, fused parts or gaps): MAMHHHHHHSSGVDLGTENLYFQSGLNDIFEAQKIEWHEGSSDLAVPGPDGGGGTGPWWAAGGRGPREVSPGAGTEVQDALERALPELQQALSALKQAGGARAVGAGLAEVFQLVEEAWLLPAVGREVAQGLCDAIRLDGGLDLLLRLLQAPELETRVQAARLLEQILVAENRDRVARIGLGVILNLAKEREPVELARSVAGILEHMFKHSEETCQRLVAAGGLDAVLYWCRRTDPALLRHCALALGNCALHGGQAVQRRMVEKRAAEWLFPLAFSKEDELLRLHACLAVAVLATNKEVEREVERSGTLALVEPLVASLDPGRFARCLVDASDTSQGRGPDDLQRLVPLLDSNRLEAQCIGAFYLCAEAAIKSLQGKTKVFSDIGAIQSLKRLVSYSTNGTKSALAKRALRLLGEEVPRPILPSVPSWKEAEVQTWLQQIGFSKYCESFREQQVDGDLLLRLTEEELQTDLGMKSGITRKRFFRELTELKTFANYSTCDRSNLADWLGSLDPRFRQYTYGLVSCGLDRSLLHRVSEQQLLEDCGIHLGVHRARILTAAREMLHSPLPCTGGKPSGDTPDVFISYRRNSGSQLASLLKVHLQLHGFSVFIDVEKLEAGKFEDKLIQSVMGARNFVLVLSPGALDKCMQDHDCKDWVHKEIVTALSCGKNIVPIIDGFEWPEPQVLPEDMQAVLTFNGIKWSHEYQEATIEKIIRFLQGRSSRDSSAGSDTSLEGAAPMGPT

Structure (SMILES) | pIC50
O=C(CCc1ccc(Cl)nc1)Nc1nc(-c2ccncc2)c[nH]1 [Example 1] | > 5.30
O=C(CCc1ccc(C(F)(F)F)s1)Nc1cc(-c2ccncc2)n[nH]1 [Example 2] | > 5.30
N[C@@H](Cc1ccc(Cl)cc1)C(=O)Nc1cc(-c2ccncc2)n[nH]1 [Example 3] | > 5.30
O=C(CNc1ccc(Cl)cc1)Nc1cc(-c2ccncc2)n[nH]1 [Example 4] | > 5.30
CC(C)(C)OC(=O)N(CC(=O)Nc1cc(-c2ccncc2)n[nH]1)c1ccc(Cl)cc1 [Example 5] | > 5.30
CN(Cc1ccc(Cl)cc1)C(=O)Nc1cc(-c2ccncc2)n[nH]1 [Example 6] | > 5.30
O=C(NCc1ccc(Cl)cc1)Nc1cc(-c2ccncc2)n[nH]1 [Example 7] | > 5.30
[2H]C([2H])(C(=O)Nc1nnc(-c2ccncc2)[nH]1)C([2H])([2H])c1ccc(Cl)nc1 [Example 8] | > 5.30
[2H]C([2H])(C(=O)Nc1cc(-c2ccncc2)n[nH]1)C([2H])([2H])c1ccc(Cl)nc1 [Example 9] | > 5.30
O=C(CCc1ccc(Cl)c(Br)c1)Nc1nnc(-c2ccncc2)[nH]1 [Example 10] | > 5.30
O=C(CCc1ccc(Cl)cc1)Nc1nnc(-c2ccncc2F)[nH]1 [Example 11] | > 5.30
O=C(CCc1ccc(Cl)s1)Nc1nnc(-c2ccnnc2)[nH]1 [Example 12] | > 5.30
O=C(CCc1ccc(Cl)c(F)c1)Nc1nnc(-c2ccnnc2)[nH]1 [Example 13] | > 5.30
O=C(CCc1cccc(F)c1)Nc1cc(-c2ccncc2)n[nH]1 [Example 14] | > 5.30
O=C(CCc1cccc(F)c1)Nc1nnc(-c2ccncc2)[nH]1 [Example 15] | > 5.30
O=C(CCc1ccc(F)c(F)c1)Nc1nnc(-c2ccncc2)[nH]1 [Example 16] | > 5.30
O=C(CCc1ccc(F)c(F)c1)Nc1cc(-c2ccncc2)n[nH]1 [Example 17] | > 5.30
Cc1c(-c2ccncc2)n[nH]c1NC(=O)CCc1ccc(Cl)cc1 [Example 18] | > 5.30
O=C(CCc1ccc(Cl)nc1)Nc1cc(-c2ccnnc2)n[nH]1 [Example 19] | > 5.30
O=C(CCc1ccc(Cl)cc1)Nc1nc(-c2ccncc2)c[nH]1 [Example 20] | > 5.30
O=C(CCc1ccc(Cl)nc1)Nc1nnc(-c2ccnnc2)[nH]1 [Example 21] | > 5.30
O=C(Nc1nnc(-c2ccncc2)[nH]1)[C@H]1C[C@H](c2ccc(Cl)cc2)C1 [Example 22] | > 5.30
O=C(Nc1nnc(-c2ccncc2)[nH]1)[C@H]1C[C@@H](c2ccc(Cl)cc2)C1 [Example 23] | > 5.30
O=C(CCc1ccc(Cl)s1)Nc1cc(-c2ccnnc2)[nH]n1 [Example 24] | > 5.30
O=C(CCc1ccc(Cl)cc1)Nc1cc(-c2ccncc2F)n[nH]1 [Example 25] | > 5.30
O=C(CCc1ccc(Cl)cc1)Nc1cc(-c2ccncn2)n[nH]1 [Example 26] | > 5.30

Structure (SMILES) | pIC50
Cc1c(-c2ccncc2)n[nH]c1NC(=O)CCc1ccc(Cl)nc1 [Example 27] | > 5.30
Clc1ccc(OCCNc2nnc(-c3ccncc3)[nH]2)cc1 [Example 28] | < 4.52
O=C(CC1CCOc2cc(Cl)ccc21)Nc1nnc(-c2ccncc2)[nH]1 (centres unmarked) [Example 29] | > 5.30
O=C(CCc1ccc(C(F)(F)F)cc1)Nc1cc(-c2ccnnc2)n[nH]1 [Example 30] | > 5.30
Nc1cc(-c2cc(NC(=O)CCc3ccc(Cl)cc3)[nH]n2)ccn1 [Example 31] | > 5.30
COc1cnccc1-c1nnc(NC(=O)CCc2ccc(Cl)cc2)[nH]1 [Example 32] | > 5.30
O=C(CCc1ccc(Cl)cc1)Nc1nnc(-c2ccnc(O)c2)[nH]1 [Example 33] | < 4.52
O=C(CCc1cnc(C(F)(F)F)nc1)Nc1cc(-c2ccncc2)n[nH]1 [Example 34] | > 5.30
O=C(Cc1c[nH]c2cc(Cl)ccc12)Nc1nnc(-c2ccncc2)[nH]1 [Example 35] | 4.82 to 5.30
O=C(CCc1ccc(Cl)cc1Cl)Nc1nnc(-c2ccncc2)[nH]1 [Example 36] | > 5.30
O=C(CCc1ccc(F)cc1)Nc1cc(-c2ccncc2)n[nH]1 [Example 37] | > 5.30
O=C(CN1C(=O)COc2cc(Cl)ccc21)Nc1cc(-c2ccncc2)n[nH]1 [Example 38] | < 4.52
O=C(CN1C(=O)COc2cc(Cl)ccc21)Nc1nnc(-c2ccncc2)[nH]1 [Example 39] | < 4.52
O=C(CCc1ccc(Cl)cc1)Nc1cc(-c2ccnnc2)[nH]n1 [Example 40] | > 5.30
Clc1ccc(CCCNc2nnc(-c3ccncc3)[nH]2)cc1 [Example 41] | < 4.52
Cc1cc(-c2n[nH]c(NC(=O)CCc3ccc(Cl)cc3)n2)ccn1 [Example 42] | < 4.52
Nc1cc(-c2n[nH]c(NC(=O)CCc3ccc(Cl)cc3)n2)ccn1 [Example 43] | > 5.30
CCc1ccc(CCC(=O)Nc2nc(-c3ccncc3)n[nH]2)cc1 [Example 44] | > 5.30
O=C(CCc1ccc(Cl)c(F)c1)Nc1nnc(-c2ccncc2)[nH]1 [Example 45] | > 5.30
O=C(CCc1ccc(Cl)cc1F)Nc1nnc(-c2ccncc2)[nH]1 [Example 46] | > 5.30
N#Cc1ccc(CCC(=O)Nc2cc(-c3ccncc3)n[nH]2)cc1 [Example 47] | > 5.30
O=C(CN1CCOc2cc(Cl)ccc21)Nc1nnc(-c2ccncc2)[nH]1 [Example 48] | > 5.30
O=C(CCc1ccc2[nH]ncc2c1)Nc1nnc(-c2ccncc2)[nH]1 [Example 49] | < 4.52
N#Cc1cc(Cl)ccc1CCC(=O)Nc1nnc(-c2ccncc2)[nH]1 [Example 50] | > 5.30
O=C(CCc1ccc(Cl)cc1)Nc1cc(-c2ccncc2)cnc1O [Example 51] | < 4.52
CN(C)C(Cc1ccccc1)C(=O)Nc1nnc(-c2ccncc2)[nH]1 (centres unmarked) [Example 52] | < 4.52

Structure (SMILES) | pIC50
O=C(CCc1ccc(Cl)cc1)Nc1nnc(-c2ccnnc2)[nH]1 [Example 53] | > 5.30
O=C(CCc1ccc(Cl)s1)Nc1cc(-c2ccncc2)[nH]n1 [Example 54] | > 5.30
O=C(CCc1ccc(Cl)nc1)Nc1cc(-c2ccncc2)[nH]n1 [Example 55] | > 5.30
N[C@@H](Cc1ccc(Cl)cc1)C(=O)Nc1nnc(-c2ccncc2)[nH]1 [Example 56] | > 5.30
O=C(CCc1ncc(C(F)(F)F)cn1)Nc1nnc(-c2ccncc2)[nH]1 [Example 57] | 4.52 to 4.82
O=C(CC1OCCc2ccccc21)Nc1nnc(-c2ccncc2)[nH]1 (centres unmarked) [Example 58] | 4.82 to 5.30
O=C(CCc1ccc(Cl)cc1)Nc1nnc(-c2ccncc2Cl)[nH]1 [Example 59] | > 5.30
O=C(CCc1ccc(Cl)cc1)Nc1nnc(-c2cncs2)[nH]1 [Example 60] | > 5.30
O=C(CCc1ccc(Cl)cc1)Nc1nc(-c2ccncc2)ns1 [Example 61] | > 5.30
O=C(CCc1ccc(C(F)(F)F)cc1)Nc1cc(-c2ccncc2)[nH]n1 [Example 62] | > 5.30
O=C(CC1CCNc2ccccc21)Nc1nnc(-c2ccncc2)[nH]1 (centres unmarked) [Example 63] | < 4.52
CC(C)(C)OC(=O)N1CCC(CC(=O)Nc2nnc(-c3ccncc3)[nH]2)c2ccccc21 (centres unmarked) [Example 64] | < 4.52
O=C(Cc1ccc(Cl)cc1)Nc1nnc(-c2ccncc2)[nH]1 [Example 65] | > 5.30
O=C(Nc1nnc(-c2ccncc2)[nH]1)C12CC(c3ccccc3)(C1)C2 [Example 66] | > 5.30
O=C(C[C@@H]1CCc2ccccc21)Nc1nnc(-c2ccncc2)[nH]1 [Example 67] | > 5.30
O=C(C[C@H]1CCc2ccccc21)Nc1nnc(-c2ccncc2)[nH]1 [Example 68] | 4.82 to 5.30
O=C(CNc1ccccc1)Nc1nnc(-c2ccncc2)[nH]1 [Example 69] | 4.82 to 5.30
CC(C)(C)OC(=O)N(CC(=O)Nc1nnc(-c2ccncc2)[nH]1)c1ccccc1 [Example 70] | < 4.52
O=C(C[C@@H]1CCOc2ccccc21)Nc1nnc(-c2ccncc2)[nH]1 [Example 71] | > 5.30
O=C(C[C@H]1CCOc2ccccc21)Nc1nnc(-c2ccncc2)[nH]1 [Example 72] | > 5.30
O=C(CC1COCc2ccccc21)Nc1nnc(-c2ccncc2)[nH]1 (centres unmarked) [Example 73] | 4.82 to 5.30
O=C(CCc1ccc(O)cc1)Nc1nnc(-c2ccncc2)[nH]1 [Example 74] | < 4.52
O=C(CCc1ccc(OC(F)F)cc1)Nc1nnc(-c2ccncc2)[nH]1 [Example 75] | > 5.30
O=C(CN1CCCc2ccccc21)Nc1nnc(-c2ccncc2)[nH]1 [Example 76] | < 4.52
NS(=O)(=O)c1ccc(CCC(=O)Nc2nnc(-c3ccncc3)[nH]2)cc1 [Example 77] | 4.52 to 4.82
